Measured values from patent US9260504B2, “N- and C-terminal substituted antagonistic analogs of GH-RH” (University of Miami, priority 2008, dated 2016).

Assays:
Assay type in all cases: in vivo
[1] = system: H460 human non-small cell lung cancer cell line; test: H460 human non-small cell lung cancer xenografts in nude mice (Example XV); details: 5 μg/day s.c.
Text: The aim of this study was to find out the tumor inhibitor effect of the latest GHRH antagonists (Peptide 11423, Peptide 11602, Peptide 11604, Peptide 11606) on H460 human non-small cell lung cancer cell line. Female nude mice were xenografted subcutaneously with approximately 3 mm^3 pieces of H460 human non-small cell lung cancer malignant tumor tissue. When tumors reached the mean volume of approximately 90 mm^3, the animals was randomly assigned into different groups. Tumor volumes and body weight were measured once a week. At the end of the experiment mice were anesthetized and sacrificed. Tumors were carefully excised, weighed and were stored at −80° C. until further investigation. Organs and tumor samples were preserved in 10% formaldehyde.

[2] = system: PC-3 human hormone-independent prostate cancer; test: PC3 androgen-independent prostate cancer xenografts in nude mice (Example XIV)
Experimental: Male nude mice were implanted s.c. with 3 mm^3 pieces of PC-3 human hormone-independent prostate cancer tissue on both flanks. When tumors reached a volume of approximately 50 mm^3, the mice were divided into 8 experimental groups with 8 to 10 animals in each group and received single daily injections for 28 days as follows: 1. Control (vehicle solution); 2. P-11513 2 μg/day; 3. P-11602 2 μg/day; 4. P-11602 1 μg/day; 5. P-11604 2 μg/day; 6. P-11606 2 μg/day; 7. P-11610 2 μg/day; 8. P-11610 1 μg/day.
Tumor volumes were measured once a week. The experiment was ended on day 28 by sacrificing the mice under Isoflurane anesthesia. Resulting tumors were cleaned, weighed, and snap-frozen until further analyses. Statistical analyses of the measurement results were done by two-tailed t-test, p<0.05 being considered significant.

[3] = system: HT human diffuse mixed B cell lymphoma cell line; test: HT human diffuse mixed B cell lymphoma xenografts in nude mice; details: 5 μg/day s.c.
Experimental: The aim of this study was to find out the tumor inhibitor effect of the latest GHRH antagonists (Peptide 11602, Peptide 11604, Peptide 11606, and Peptide 11610) at the dose of 5 μg/day on HT human diffuse mixed B cell lymphoma cell line. Female nude mice were xenografted subcutaneously with approximately 3 mm^3 pieces of HT malignant tumor tissue. When tumors reached the mean volume of approximately 120 mm^3, the animals were randomly assigned into different groups. Tumor volumes and body weight were measured once a week. At the end of the experiment mice were anesthetized and sacrificed. Tumors were carefully excised, weighed and were stored at −80° C. until further investigation. Organs and tumor samples were preserved in 10% formaldehyde.

What does the source list for “[PhAc^0-Tyr^1, D-Arg^2, Cpa^6, Dip^8, Har^9, Tyr(Me)^10, His^11, Orn^12, Abu^15, His^20, Orn^21, Nle^27, D-Arg^28, Har^29-AE2A^30]hGH-RH(1-29)NH2 [Peptide 11423]”?
TUMOR GROWTH (%) ([1]; day 1 (baseline)): 100.00%; TUMOR GROWTH (%) ([1]; day 7): 412.37%; Tumor inhibition (%) ([1]; day 7): 22.17%; TUMOR GROWTH (%) ([1]; day 14): 761.10%; Tumor inhibition (%) ([1]; day 14): 44.95%; TUMOR GROWTH (%) ([1]; day 21): 1130.90%; Tumor inhibition (%) ([1]; day 21): 54.20%; TUMOR GROWTH (%) ([1]; day 28): 2687.38%; Tumor inhibition (%) ([1]; day 28): 34.45%

Which “TUMOR GROWTH (%)” value ([2]; 2 μg/day, day 0 (baseline)) does the source give for “[(PhAc^0-Ada)-Tyr^1, D-Arg^2, (Phe(F)5)^6, (Me-Ala)^8, Har^9, Tyr(Me)^10, His^11, Orn^12, Abu^15, His^20, Orn^21, Nle^27, D-Arg^28, Har^29, Agm^30]hGH-RH(1-29) [Peptide 11606]” here?
The value was 100%.

And the “TUMOR GROWTH (%)” value ([2]; 2 μg/day, day 7)?
Its value is 145.65%.

And the “Tumor inhibition (%)” value ([2]; 2 μg/day, day 7)?
The value was 56.03%.

What about the “TUMOR GROWTH (%)” value ([2]; 2 μg/day, day 14) of the same substance?
Its value is 307.66%.

What about the “Tumor inhibition (%)” value ([2]; 2 μg/day, day 14) of the same substance?
Its value is 47.94%.

And the “TUMOR GROWTH (%)” value ([2]; 2 μg/day, day 21)?
Its value is 521.69%.

What about the “Tumor inhibition (%)” value ([2]; 2 μg/day, day 21) of the same substance?
Its value is 56.16%.

What about the “TUMOR GROWTH (%)” value ([2]; 2 μg/day, day 28) of the same substance?
Its value is 709.50%.

What about the “Tumor inhibition (%)” value ([2]; 2 μg/day, day 28) of the same substance?
The value was 61.80%.

What about the “TUMOR GROWTH (%)” value ([1]; day 1 (baseline)) of the same substance?
The value was 100.00%.

What about the “TUMOR GROWTH (%)” value ([1]; day 7) of the same substance?
The value was 221.26%.

What about the “Tumor inhibition (%)” value ([1]; day 7) of the same substance?
Its value is 58.24%.

And the “TUMOR GROWTH (%)” value ([1]; day 14)?
Its value is 494.68%.

And the “Tumor inhibition (%)” value ([1]; day 14)?
The value was 64.22%.

What about the “TUMOR GROWTH (%)” value ([1]; day 21) of the same substance?
Its value is 933.19%.

And the “Tumor inhibition (%)” value ([1]; day 21)?
The value was 62.20%.

And the “TUMOR GROWTH (%)” value ([1]; day 28)?
Its value is 1482.03%.

What about the “Tumor inhibition (%)” value ([1]; day 28) of the same substance?
The value was 63.85%.

And the “TUMOR GROWTH (%)” value ([3]; day 1 (baseline))?
The value was 100%.

And the “Tumor inhibition (%)” value ([3]; day 1 (baseline))?
Its value is 0%.

And the “Tumor volume (mm^3)” value ([3]; day 1 (baseline))?
The value was 128.49 mm^3.

What about the “TUMOR GROWTH (%)” value ([3]; day 7) of the same substance?
The value was 209.74%.

And the “Tumor inhibition (%)” value ([3]; day 7)?
Its value is 31.38%.

And the “Tumor volume (mm^3)” value ([3]; day 7)?
The value was 223.02 mm^3.

And the “TUMOR GROWTH (%)” value ([3]; day 14)?
Its value is 352.2%.

And the “Tumor inhibition (%)” value ([3]; day 14)?
The value was 27.05%.

What about the “Tumor volume (mm^3)” value ([3]; day 14) of the same substance?
Its value is 341.77 mm^3.

What about the “TUMOR GROWTH (%)” value ([3]; day 21) of the same substance?
Its value is 453.71%.

What about the “Tumor inhibition (%)” value ([3]; day 21) of the same substance?
Its value is 41.94%.

What about the “Tumor volume (mm^3)” value ([3]; day 21) of the same substance?
Its value is 510.24 mm^3.

And the “TUMOR GROWTH (%)” value ([3]; day 28)?
The value was 660.24%.

What about the “Tumor inhibition (%)” value ([3]; day 28) of the same substance?
The value was 26.35%.

What about the “Tumor volume (mm^3)” value ([3]; day 28) of the same substance?
Its value is 716.13 mm^3.

Which “TUMOR GROWTH (%)” value ([2]; 1 μg/day, day 0 (baseline)) does the source give for “[(PhAc-Ada)^0-Tyr^1, D-Arg^2, (Phe(F)5)^6, Ala^8, Har^9, Tyr(Me)^10, His^11, Orn^12, Abu^15, His^20, Orn^21, Nle^27, D-Arg^28, Har^29]hGH-RH(1-29)NH2 [Peptide 11602]” here?
The value was 100%.

What about the “TUMOR GROWTH (%)” value ([2]; 1 μg/day, day 7) of the same substance?
The value was 249.81%.

What about the “Tumor inhibition (%)” value ([2]; 1 μg/day, day 7) of the same substance?
The value was 24.59%.

What about the “TUMOR GROWTH (%)” value ([2]; 1 μg/day, day 14) of the same substance?
Its value is 295.25%.

And the “Tumor inhibition (%)” value ([2]; 1 μg/day, day 14)?
Its value is 50.04%.

And the “TUMOR GROWTH (%)” value ([2]; 1 μg/day, day 21)?
Its value is 467.74%.

And the “Tumor inhibition (%)” value ([2]; 1 μg/day, day 21)?
Its value is 60.70%.

What about the “TUMOR GROWTH (%)” value ([2]; 1 μg/day, day 28) of the same substance?
The value was 740.06%.

What about the “Tumor inhibition (%)” value ([2]; 1 μg/day, day 28) of the same substance?
The value was 60.15%.

And the “TUMOR GROWTH (%)” value ([2]; 2 μg/day, day 0 (baseline))?
Its value is 100%.

What about the “TUMOR GROWTH (%)” value ([2]; 2 μg/day, day 7) of the same substance?
Its value is 197.77%.

And the “Tumor inhibition (%)” value ([2]; 2 μg/day, day 7)?
The value was 40.30%.

And the “TUMOR GROWTH (%)” value ([2]; 2 μg/day, day 14)?
The value was 270.61%.

And the “Tumor inhibition (%)” value ([2]; 2 μg/day, day 14)?
Its value is 54.21%.

What about the “TUMOR GROWTH (%)” value ([2]; 2 μg/day, day 21) of the same substance?
The value was 449.82%.

What about the “Tumor inhibition (%)” value ([2]; 2 μg/day, day 21) of the same substance?
Its value is 62.20%.

What about the “TUMOR GROWTH (%)” value ([2]; 2 μg/day, day 28) of the same substance?
The value was 641.31%.

What about the “Tumor inhibition (%)” value ([2]; 2 μg/day, day 28) of the same substance?
The value was 65.47%.

And the “TUMOR GROWTH (%)” value ([1]; day 1 (baseline))?
The value was 100.00%.

And the “TUMOR GROWTH (%)” value ([1]; day 7)?
The value was 247.89%.

And the “Tumor inhibition (%)” value ([1]; day 7)?
The value was 53.21%.

What about the “TUMOR GROWTH (%)” value ([1]; day 14) of the same substance?
The value was 504.42%.

What about the “Tumor inhibition (%)” value ([1]; day 14) of the same substance?
The value was 63.52%.

What about the “TUMOR GROWTH (%)” value ([1]; day 21) of the same substance?
Its value is 864.16%.

What about the “Tumor inhibition (%)” value ([1]; day 21) of the same substance?
Its value is 65.00%.

What about the “TUMOR GROWTH (%)” value ([1]; day 28) of the same substance?
Its value is 2575.35%.

What about the “Tumor inhibition (%)” value ([1]; day 28) of the same substance?
The value was 37.18%.

What about the “TUMOR GROWTH (%)” value ([3]; day 1 (baseline)) of the same substance?
Its value is 100%.

And the “Tumor inhibition (%)” value ([3]; day 1 (baseline))?
Its value is 0%.

And the “Tumor volume (mm^3)” value ([3]; day 1 (baseline))?
The value was 194.81 mm^3.

And the “TUMOR GROWTH (%)” value ([3]; day 7)?
The value was 192.86%.

What about the “Tumor inhibition (%)” value ([3]; day 7) of the same substance?
Its value is 36.94%.

What about the “Tumor volume (mm^3)” value ([3]; day 7) of the same substance?
The value was 260.13 mm^3.

And the “TUMOR GROWTH (%)” value ([3]; day 14)?
The value was 281.4%.

And the “Tumor inhibition (%)” value ([3]; day 14)?
Its value is 41.71%.

And the “Tumor volume (mm^3)” value ([3]; day 14)?
The value was 311.76 mm^3.

What about the “TUMOR GROWTH (%)” value ([3]; day 21) of the same substance?
Its value is 462.45%.

What about the “Tumor inhibition (%)” value ([3]; day 21) of the same substance?
Its value is 40.82%.

And the “Tumor volume (mm^3)” value ([3]; day 21)?
Its value is 332.67 mm^3.

What about the “TUMOR GROWTH (%)” value ([3]; day 28) of the same substance?
The value was 608.23%.

And the “Tumor inhibition (%)” value ([3]; day 28)?
Its value is 32.15%.

And the “Tumor volume (mm^3)” value ([3]; day 28)?
The value was 509.24 mm^3.
